Assay results reported in US8383637B2, “2-amino-quinazoline derivatives useful as inhibitors of β-secretase (BACE)” (Jansssen Pharmaceutica N.V., priority 2004, dated 2013).

Tests used:
Assay type in all cases: biochemical
β-secretase(BACE) [1] = target: T1, β-secretase(BACE) (Homo sapiens, UniProt P56817); experiment: BACE % Inhibition Assay ((Aedens)-[…]-(Dabcyl K-amide) substrate); conditions: % error ±10%; for inhibition at 3 µM / inhibition at 10 µM: read-out: % Inhibition
T1 construct: purchased Panvera
T1 sequence (P56817 46-501): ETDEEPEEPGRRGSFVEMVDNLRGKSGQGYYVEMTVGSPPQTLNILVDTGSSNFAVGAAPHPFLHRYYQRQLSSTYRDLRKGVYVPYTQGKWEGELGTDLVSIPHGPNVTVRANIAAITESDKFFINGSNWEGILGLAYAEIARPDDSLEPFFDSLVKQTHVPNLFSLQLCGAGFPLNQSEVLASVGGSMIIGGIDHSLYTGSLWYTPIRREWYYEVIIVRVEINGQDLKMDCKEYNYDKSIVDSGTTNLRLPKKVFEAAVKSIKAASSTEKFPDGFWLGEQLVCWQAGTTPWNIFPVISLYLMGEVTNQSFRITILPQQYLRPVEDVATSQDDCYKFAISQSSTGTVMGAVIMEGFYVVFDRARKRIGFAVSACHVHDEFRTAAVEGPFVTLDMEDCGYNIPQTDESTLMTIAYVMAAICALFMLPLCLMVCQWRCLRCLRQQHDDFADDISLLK
Description: The substrate stock solution was prepared in DMSO as a 10 mg/mL solution. The substrate working solution was prepared by diluting the 10 mg/mL stock solution with substrate assay buffer to a final concentration of 300 μg/mL. The β-secretase (BACE) working solution was prepared by diluting a 0.83 mg/mL BACE stock solution with enzyme assay buffer to a final concentration of 4 μg/mL.
Test compounds were dissolved in DMSO to 10 mM.
The screening procedure for this assay was as follows: 15 μL of BACE working solution was pipetted into each well of a 96-well plate. To each well was then pipetted 2 μL of test compound at the selected concentration. Test compound and BACE were then mixed with a pipettor and incubated for 20 min at room temperature. To each well was then added 10 μL of the substrate working solution. The plates were then incubated for 1 hour at room temperature.
The procedure for the blank was as follows. 15 μL of assay buffer was pipetted into each well to be used as a blank control. To each well was then added 2 μL of vehicle and 10 μL of substrate working solution. The plates were then incubated for 1 hour at room temperature.
The procedure for the positive control was as follows: 15 μl of BACE working solution was pipetted into each well to be used as a positive control. To each well was then pipetted 2 μL of vehicle. Vehicle and BACE were then mixed with a pipettor and incubated for 20 min at room temperature. To each well was then added 10 μL of the substrate working solution. The plates were then incubated for 1 hour at room temperature.
For test compounds, % inhibition was determined at each concentration as follows: […]

β-secretase(BACE) [2] = target: T1, β-secretase(BACE); experiment: BACE Assay-2 (FS1 substrate, IC50 and Ki); conditions: procedure of Example 159, FS1 substrate; for Ki: read-out: Ki μM (159)
β-secretase(BACE) [3] = target: T1, β-secretase(BACE); experiment: BACE Assay-1 (MCA-substrate, IC50); conditions: procedure of Example 158; read-out: IC50 μM (158)
Procedure, shortened: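 Human BACE (work solution 10 μg/mL) with MCA-peptide substrate (stock 2.0 mg/mL) in 0.05 M citrate buffer, pH 5.0, with PEG8000. Fluorescence read at T0 and T60; compounds tested at multiple concentrations and IC50 calculated from these readings.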

β-secretase(BACE) [4] = target: T1, β-secretase(BACE); experiment: BACE FS1% Inhibition Assay; conditions: FS1 substrate
Procedure, shortened: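 Percent inhibition at each tested concentration, referenced to enzyme-free blank and vehicle-only positive control. Reaction: compound and BACE (4 μg/mL working stock) mixed 20 min at room temperature before FS1 substrate (300 μg/mL working stock), then 1 h at room temperature.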

| Compound | inhibition at 3 µM (β-secretase(BACE) [1]; 3 μM test compound) [%] | inhibition at 10 µM (β-secretase(BACE) [1]; 10 μM test compound) [%] | IC50 (β-secretase(BACE) [2]) [µM] | Ki (β-secretase(BACE) [2]) [µM] | IC50 (β-secretase(BACE) [3]) [µM] | % Inhibition (β-secretase(BACE) [1]; 3 μM test compound) [%] | further results |
| --- | --- | --- | --- | --- | --- | --- | --- |
| CN(C(=O)CCCCN1Cc2cc(C(=O)c3ccccc3)ccc2N=C1N)C1CCCCC1 [Compound 27] | 63 | 81 | 3 | 0.66 | 1.2 |  |  |
| NC1=Nc2ccc(C(=O)c3ccccc3)cc2CN1CCNC(=O)C1CCCCC1 [Compound 7, Cyclohexanecarboxylic acid [2-(2-amino-6-benzoyl-4H-quinazolin-3-yl)-ethyl]-amide] | 76 | 87 | 5.3 | 0.24 | 1.4 |  |  |
| CCCN1Cc2cc(Oc3cccc(NCC4CCCCC4)c3)ccc2N=C1N [Compound 55] | 62 | 95 | 2.4 | 0.79 | 0.28 |  |  |
| NC1=Nc2ccc(C(=O)c3ccccc3)cc2CN1CCCCC(=O)N(C1CCCCC1)C1CCCCC1 [Compound 46] | 66 | 82 | 2.1 | 0.6 | 0.6 |  |  |
| CCCC(CCCC(=O)N(CC)C1CCCCC1)N1Cc2cc(Oc3ccccc3)ccc2N=C1N (stereo not drawn) [Compound 105] |  |  |  |  |  | <30 | % Inhibition (FS) 0.3 μM (β-secretase(BACE) [4]; 0.3 μM test compound): <30%; % Inhibition (FS) 1 μM (β-secretase(BACE) [4]; 1 μM test compound): <30%; % Inhibition (FS) 3 μM (β-secretase(BACE) [4]; 3 μM test compound): <30%; % Inhibition (β-secretase(BACE) [1]; 10 μM test compound): <30% |
| CCCN1Cc2cc(Oc3cccc(NC4CCCCC4)c3)ccc2N=C1N [Compound 53] | 34 | 82 | 6.8 | 0.82 | 1 |  |  |
| 3-(2-Amino-6-phenoxy-4H-quinazolin-3-yl)-pentanedioic acid bis-(cyclohexyl-methyl-amide) [Compound 107] |  |  | 4.58 | 1.2 | 0.82 | 48 | % Inhibition (β-secretase(BACE) [1]; 10 μM test compound): 78% |
| CN(CCCN1Cc2cc(C(=O)c3ccccc3)ccc2N=C1N)C1CCCCC1 [Compound 15, {2-Amino-3-[3-(cyclohexyl-methyl-amino)-propyl]-3,4-dihydro-quinazolin-6-yl}-phenyl-methanone] | 42 | 69 |  | 4 | 2.3 |  |  |
| CN(C(=O)CCC(CCC(=O)N(C)C1CCCCC1)N1Cc2cc(Oc3ccccc3)ccc2N=C1N)C1CCCCC1 [Compound 84, 4-(2-Amino-6-phenoxy-4H-quinazolin-3-yl)-heptanedioic acid bis-(cyclohexyl-methyl-amide)] | 38 | 63 | 3.1 | 0.76 | 0.47 |  |  |
| NC1=Nc2ccc(Oc3ccccc3)cc2CN1C(CCNC(=O)CC1CCCC1)C1CCCCC1 (stereo not drawn) [Compound 393] | 113 |  |  | 0.29 | 0.15 |  | inhibition at 0.3 µM (β-secretase(BACE) [1]; 0.3 μM test compound): < 30%; inhibition at 1 µM (β-secretase(BACE) [1]; 1 μM test compound): 52% |
| NC1=Nc2ccc(Oc3ccccc3)cc2CN1C(CNC(=O)CCC1CCCC1)C1CCCCC1 (stereo not drawn) [Compound 366] | 119 |  |  | 0.067 |  |  | inhibition at 0.3 µM (β-secretase(BACE) [1]; 0.3 μM test compound): 64%; inhibition at 1 µM (β-secretase(BACE) [1]; 1 μM test compound): 113% |
| NC1=Nc2ccc(Oc3ccccc3)cc2CN1Cc1cccc(CNC(=O)C23CC4CC(CC(C4)C2)C3)c1 [Compound 336] |  |  |  |  |  | <30 | % Inhibition (β-secretase(BACE) [1]; 0.3 μM test compound): <30%; % Inhibition (β-secretase(BACE) [1]; 1 μM test compound): <30% |
| CN(C(=O)[C@H]1CCCC[C@H]1N1Cc2cc(Oc3ccccc3)ccc2N=C1N)C1CCCCC1 [Compound 81] |  |  |  |  |  | <30 | % Inhibition (β-secretase(BACE) [1]; 10 μM test compound): <30% |
| NC1=Nc2ccc(Oc3ccccc3)cc2CN1C(CNC(=O)C1(c2ccc(Cl)cc2)CCCC1)C1CCCCC1 (stereo not drawn) [Compound 390] |  |  |  |  |  | 102 | % Inhibition (β-secretase(BACE) [1]; 0.3 μM test compound): <30%; % Inhibition (β-secretase(BACE) [1]; 1 μM test compound): 50% |
| CN(C(=O)c1cc(CN2Cc3cc(Oc4ccccc4)ccc3N=C2N)ccn1)C1CCCCC1 [Compound 89] | 77 | 81 | 0.4 |  |  |  |  |
| CC(C)CC(=O)NCC(C1CCCCC1)N1Cc2cc(Oc3ccccc3)ccc2N=C1N (stereo not drawn) [Compound 389] | 120 |  |  | 0.028 |  |  | inhibition at 0.3 µM (β-secretase(BACE) [1]; 0.3 μM test compound): 85%; inhibition at 1 µM (β-secretase(BACE) [1]; 1 μM test compound): 112% |
| CCCC(CCC(=O)N(C)C1CCCCC1)N1Cc2cc(Oc3ccccc3)ccc2N=C1N (stereo not drawn) [Compound 86] |  |  |  |  |  | 72 | % Inhibition (β-secretase(BACE) [1]; 10 μM test compound): 80% |
| CCCN1Cc2cc(Oc3cccc(N(C#N)CC4CCCCC4)c3)ccc2N=C1N [Compound 56] |  |  |  |  |  | 35 | % Inhibition (β-secretase(BACE) [1]; 10 μM test compound): 79% |
| NC1=Nc2ccc(Oc3ccccc3)cc2CN1Cc1cccc(CNC(=O)C(c2ccccc2)c2ccccc2)c1 [Compound 337] |  |  |  |  |  | <30 | % Inhibition (β-secretase(BACE) [1]; 0.3 μM test compound): <30%; % Inhibition (β-secretase(BACE) [1]; 1 μM test compound): <30% |
| CN(C(=O)[C@@H]1CCCN1C(=O)CN1Cc2cc(Oc3ccccc3)ccc2N=C1N)C1CCCCC1 [Compound 88] |  |  |  |  |  | <30 | % Inhibition (β-secretase(BACE) [1]; 10 μM test compound): <30% |
| CN(C(=O)[C@@H]1CC[C@H](N2Cc3cc(Oc4ccccc4)ccc3N=C2N)C1)C1CCCCC1 [Compound 77] |  |  |  |  |  | <30 | % Inhibition (β-secretase(BACE) [1]; 10 μM test compound): <30% |
| CCCN1Cc2cc(Oc3cccc(NC(=O)C4CCCCC4)c3)ccc2N=C1N [Compound 44] |  |  |  |  |  | <30 | % Inhibition (β-secretase(BACE) [1]; 10 μM test compound): 31% |
| CN(C(=O)[C@@H]1CCCC[C@@H]1N1Cc2cc(Oc3ccccc3)ccc2N=C1N)C1CCCCC1 [Compound 87] |  |  |  |  |  | <30 | % Inhibition (β-secretase(BACE) [1]; 10 μM test compound): <30% |

The next lines start with results.

| inhibition at 3 µM (β-secretase(BACE) [1]; 3 μM test compound) [%] | inhibition at 10 µM (β-secretase(BACE) [1]; 10 μM test compound) [%] | IC50 (β-secretase(BACE) [2]) [µM] | Ki (β-secretase(BACE) [2]) [µM] | IC50 (β-secretase(BACE) [3]) [µM] | % Inhibition (β-secretase(BACE) [1]; 3 μM test compound) [%] | Compound | further results |
| --- | --- | --- | --- | --- | --- | --- | --- |
| 56 | 74 | 3.6 | 4 |  |  | CC(C)(C)OC(=O)NCCCN1Cc2cc(Oc3ccccc3)ccc2N=C1N [Compound 103] |  |
| 61 | 80 | 0.94 | 0.12 | 0.11 |  | CC(C)(C)OC(=O)NCCN1Cc2cc(Oc3ccccc3)ccc2N=C1N [Compound 80] |  |
| 88 | 92 |  | 0.59 | 0.12 |  | NC1=Nc2ccc(Oc3ccccc3)cc2CN1CCNC(=O)C1CCCC1 [Compound 112] |  |
| 113 |  |  | 0.1 |  |  | NC1=Nc2ccc(Oc3ccccc3)cc2CN1CCC(=O)NC12CC3CC(CC(C3)C1)C2 [Compound 365] | inhibition at 0.3 µM (β-secretase(BACE) [1]; 0.3 μM test compound): < 30%; inhibition at 1 µM (β-secretase(BACE) [1]; 1 μM test compound): 86% |
| 118 |  |  | 0.065 | 0.041 |  | CCCC(CNC(=O)C1CCCCC1)N1Cc2cc(Oc3ccccc3)ccc2N=C1N (stereo not drawn) [Compound 343] | inhibition at 0.3 µM (β-secretase(BACE) [1]; 0.3 μM test compound): 81%; inhibition at 1 µM (β-secretase(BACE) [1]; 1 μM test compound): 101% |
| 111 |  |  | 0.12 |  |  | CC(C)(C)OC(=O)NCC(C1CCCCC1)N1Cc2cc(Oc3ccccc3)ccc2N=C1N (stereo not drawn) [Compound 367] | inhibition at 0.3 µM (β-secretase(BACE) [1]; 0.3 μM test compound): < 30%; inhibition at 1 µM (β-secretase(BACE) [1]; 1 μM test compound): 80% |
| 67 | 92 | 1.6 | 0.38 | 0.18 |  | NC1=Nc2ccc(Oc3ccccc3)cc2CN1CCCCC(=O)N(C1CCCCC1)C1CCCCC1 [Compound 19] |  |
| 73 | 90 | 0.954 | 0.076 | 0.32 |  | NC1=Nc2ccc(Oc3ccccc3)cc2CN1CCCNC(=O)C1CCCCC1 [Compound 108] |  |
|  |  |  |  |  | <30 | CCOC(=O)CCN1Cc2cc(Oc3ccccc3)ccc2N=C1N [Compound 65] | % Inhibition (β-secretase(BACE) [1]; 10 μM test compound): <30% |
| 103 |  |  | 0.19 | 0.25 |  | CCCC(CNC(=O)OC(C)(C)C)N1Cc2cc(Oc3ccccc3)ccc2N=C1N (stereo not drawn) [Compound 318] | inhibition at 0.3 µM (β-secretase(BACE) [1]; 0.3 μM test compound): 32%; inhibition at 1 µM (β-secretase(BACE) [1]; 1 μM test compound): 70% |
| 45 | 64 | 11 |  |  |  | CC(C)(C)OC(=O)NCCCCN1Cc2cc(Oc3ccccc3)ccc2N=C1N [Compound 101] |  |
|  |  |  |  |  | <30 | CCCCC(CC)C(=O)NCc1cccc(CN2Cc3cc(Oc4ccccc4)ccc3N=C2N)c1 (stereo not drawn) [Compound 339] | % Inhibition (β-secretase(BACE) [1]; 0.3 μM test compound): <30%; % Inhibition (β-secretase(BACE) [1]; 1 μM test compound): <30% |
|  |  |  |  |  | 72 | CCCCC(CC)C(=O)NCC(c1ccccc1)N1Cc2cc(Oc3ccccc3)ccc2N=C1N (stereo not drawn) [Compound 341] | % Inhibition (β-secretase(BACE) [1]; 0.3 μM test compound): <30%; % Inhibition (β-secretase(BACE) [1]; 1 μM test compound): <30% |
|  |  |  |  |  | 119 | CC(C)CCC(=O)NCC(C1CCCCC1)N1Cc2cc(Oc3ccccc3)ccc2N=C1N (stereo not drawn) [Compound 388] | % Inhibition (β-secretase(BACE) [1]; 0.3 μM test compound): 107%; % Inhibition (β-secretase(BACE) [1]; 1 μM test compound): 119% |
